Reference: patent US20040248275A1, “Engineered bacterial aggregates” (priority 2003, published 2004)

Assays:
Assay type in all cases: cell-based
[1] = tested on: Aeromonas hydrophila; test: QUAT susceptibility of single-species aggregates (survivors); conditions: for No. of survivors after 20 minutes following treatment of 100 μm aggregate with 1 mM QUAT: 100 μm single species aggregate; for No. of survivors (%) at 20 min: 1 mM QUAT
Experimental: (§1) In another version of the present invention, one would test a biocide with the aggregates described above in the following manner: Volumes (1-10 mL) of customized aggregate suspensions, formed as described earlier, are held in suitable containers (microtitre plate well, mini-centrifuge tubes, pyrex glass test-tubes) to which are added appropriate concentrations of the test biocide (volume 5-25% of suspension volume). After a chosen contact times have elapsed (1-30 minutes) samples are removed to a neutralizer solution appropriate to the chosen biocide containing the antagonistic sugar (50 mM) for the chosen lectin (See Table 1). The aggregates disperse into single cell suspension that upon which simple plate count estimates of the viable surviving cell number may be conducted. Control experiments are conducted on disaggregated populations created by resuspending the customized aggregates in the antagonistic sugar (50 mM) prior to the addition of biocide.
(§2) Single species (Pseudomonas sp. 2881, Aeromonas hydrophila and Corynebacterium aquaticum) aggregates of 10, 50 and 100 μm in size were constructed and treated with different concentrations of three simple quaternary ammonium compounds (n-alkyl dimethyl benzyl ammonium chloride where n=12, 14 or 16).

[2] = tested on: Corynebacterium aquaticum; test: as above; conditions: for No. of survivors after 20 minutes following treatment of 100 μm aggregate with 1 mM QUAT: 100 μm single species aggregate; for No. of survivors (%) at 20 min: 1 mM QUAT
Experimental: as §1, §2

[3] = tested on: Pseudomonas sp. 2881; test: as above; conditions: for No. of survivors after 20 minutes following treatment of 100 μm aggregate with 1 mM QUAT: 100 μm single species aggregate; for No. of survivors (%) at 20 min: 1 mM QUAT
Experimental: as §1, §2

[4] = tested on: A. hydrophila; test: QUAT susceptibility in structured multi-species aggregates (survivors); conditions: 1 mM QUAT
Experimental: (§3) In another method of the present invention, one would form a multilamellar spherical aggregate in the following manner: In order to construct lamellar aggregates, aggregates of defined size should be prepared for the ‘core’ under XS (see i or ii above). Cores, either homogeneous or heterogeneous, are harvested by centrifugation (3000 g 10 minutes) and resuspended in the original volume of phosphate buffered saline (pH 7.1). Mix equal parts of the harvested core aggregates and a washed suspension of the ‘coating organism’ (1×10^7-5×10^8 cells/mL).
as §1
(§4) Binary lamellar aggregates were constructed for all combinations of the three test species. Core aggregate size was 50 microns diameter. Cores were coated with an equal number of the partner species. Each test species served as both core-aggregate and shell in these experiments. […] When the cells were aggregated prior to exposure to QUATs, then it became apparent that there was not only a protection afforded by aggregation but that the relative location of one species to the other affected the inactivation. Selected data is presented that compares inactivation of unordered (homogeneous) aggregates of two different species with ones where each of the partner organisms serves as either the core or shell to the other.

[5] = tested on: C. aquaticum; test: as above; conditions: 1 mM QUAT
Experimental: as §3, §1, §4

[6] = tested on: Pseudomonas sp. 2881; test: as above; conditions: 1 mM QUAT
Experimental: as §3, §1, §4

[7] = single-species aggregate Approx. 10 μm
[8] = single-species aggregate Approx. 50 μm
[9] = single-species aggregate Approx. 100 μm
[10] = 100 μm A. hydrophila - C. aquaticum aggregate, Unordered mixture
[11] = 100 μm Pseudomonas sp. 2881 - A. hydrophila aggregate, Unordered mixture
[12] = 100 μm aggregate, A. hydrophila shell, C. aquaticum core
[13] = 100 μm aggregate, A. hydrophila shell, Pseudomonas sp. 2881 core
[14] = 100 μm aggregate, C. aquaticum shell, A. hydrophila core
[15] = 100 μm aggregate, Pseudomonas sp. 2881 shell, A. hydrophila core
[16] = 100 μm Pseudomonas sp. 2881 - C. aquaticum aggregate, Unordered mixture
[17] = 100 μm aggregate, C. aquaticum shell, Pseudomonas sp. 2881 core
[18] = 100 μm aggregate, Pseudomonas sp. 2881 shell, C. aquaticum core

n-alkyl dimethyl benzyl ammonium chloride [C16 QUAT]
No. of survivors after 20 minutes following treatment of 100 μm aggregate with 1 mM QUAT [1]: 0.594
No. of survivors after 20 minutes following treatment of 100 μm aggregate with 1 mM QUAT [2]: 0.266
No. of survivors after 20 minutes following treatment of 100 μm aggregate with 1 mM QUAT [3]: 0.724

n-alkyl dimethyl benzyl ammonium chloride [C12 QUAT]
No. of survivors after 20 minutes following treatment of 100 μm aggregate with 1 mM QUAT [1]: 0.635
No. of survivors after 20 minutes following treatment of 100 μm aggregate with 1 mM QUAT [2]: 0.240
No. of survivors after 20 minutes following treatment of 100 μm aggregate with 1 mM QUAT [3]: 0.711

n-alkyl dimethyl benzyl ammonium chloride [C14 QUAT]
No. of survivors (%) at 20 min ([1]; No aggregate (free cells)): <0.00001%
No. of survivors (%) at 20 min [1, 7]: 0.0041%
No. of survivors (%) at 20 min [1, 8]: 0.0282%
No. of survivors (%) at 20 min [1, 9]: 0.4197%
No. of survivors after 20 minutes following treatment of 100 μm aggregate with 1 mM QUAT [1]: 0.420
No. of survivors (%) at 20 min ([2]; No aggregate (free cells)): <0.00001%
No. of survivors (%) at 20 min [2, 7]: 0.0002%
No. of survivors (%) at 20 min [2, 8]: 0.0027%
No. of survivors (%) at 20 min [2, 9]: 0.0829%
No. of survivors after 20 minutes following treatment of 100 μm aggregate with 1 mM QUAT [2]: 0.083
No. of survivors (%) at 20 min ([3]; No aggregate (free cells)): 0.001%
No. of survivors (%) at 20 min [3, 7]: 0.021%
No. of survivors (%) at 20 min [3, 8]: 0.0598%
No. of survivors (%) at 20 min [3, 9]: 0.5942%
No. of survivors after 20 minutes following treatment of 100 μm aggregate with 1 mM QUAT [3]: 0.594
% No. survivors after 20 minutes [4, 10]: 0.172%
% No. survivors after 20 minutes [4, 11]: 0.112%
% No. survivors after 20 minutes [4, 12]: 0.131%
% No. survivors after 20 minutes [4, 13]: 0.0065%
% No. survivors after 20 minutes [4, 14]: 0.365%
% No. survivors after 20 minutes [4, 15]: 0.176%
% No. survivors after 20 minutes [5, 10]: 0.0364%
% No. survivors after 20 minutes [5, 16]: 0.0412%
% No. survivors after 20 minutes [5, 12]: 0.0457%
% No. survivors after 20 minutes [5, 14]: >0.001%
% No. survivors after 20 minutes [5, 17]: >0.001%
% No. survivors after 20 minutes [5, 18]: 0.0698%
% No. survivors after 20 minutes [6, 11]: 0.241%
% No. survivors after 20 minutes [6, 16]: 0.264%
% No. survivors after 20 minutes [6, 13]: 0.319%
% No. survivors after 20 minutes [6, 17]: 0.425%
% No. survivors after 20 minutes [6, 15]: 0.147%
% No. survivors after 20 minutes [6, 18]: 0.219%
